# Measurements from patent US20080070946A1, “Hydroxymethylbenzothiazoles Amides” (AstraZeneca AB, priority 2004, published 2008).
# How the values were obtained:
# hVR1 = target: T1, hVR1 (Homo sapiens, UniProt Q8NER1); assay: hVR1 FLIPR (Fluorometric Image Plate Reader) screening assay, IC50 determination; type: cell-based; conditions: CHO cells stably expressing hVR1
# T1 construct: expressed in transfected cells
# Method: 1. hVR1 FLIPR (Fluorometric Image Plate Reader) Screening Assay
# Transfected CHO cells, stably expressing hVR1 (15,000 cells/well) are seeded in 50 ul media in a black clear bottom 384 plate (Greiner) and grown in a humidified incubator (37° C., 2% CO2), 24-30 hours prior to experiment.
# Subsequently, the media is removed from the cell plate by inversion and 2 μM Fluo-4 is added using a multidrop (Labsystems). Following the 40 minutes dye incubation in the dark at 37° C. and 2% CO2, the extracellular dye present is washed away using an EMBLA (Scatron), leaving the cells in 40 ul of assay buffer (1× HBSS, 10 mM D-Glucose, 1 mM CaCl2, 10 mM HEPES, 10×7.5% NaHCO3 and 2.5 mM Probenecid).
# FLIPR Assay—IC50 Determination Protocol
# For IC50 determinations the fluorescence is read using FLIPR filter 1 (em […]). A cellular baseline recording is taken for 30 seconds, followed by a 20 μl addition of 10, titrated half-log concentrations of the test compound, yielding cellular concentration ranging from 3 μM to 0.1 nM. Data is collected every 2 seconds for a further 5 minutes prior to the addition of a VR1 agonist solution: either 50 nM solution of capsaicin or MES (2-[N-morpholino]ethanesulfonic acid) buffer (pH 5.2), by the FLIPR pipettor. The FLIPR continues to collect data for a further 4 minutes. Compounds having antagonistic properties against the hVR1 will inhibit the increase in intracellular calcium in response to the capsaicin addition. This consequently leading to a reduction in fluorescence signal and providing a reduced fluorescence reading, compared with no compound, buffer controls. Data is exported by the FLIPR program as a sum of fluorescence calculated under the curve upon the addition of capsaicin. Maximum inhibition, Hill slope and IC50 data for each compound are generated.
# [1] = Metabolic stability in rat hepatocytes (intrinsic clearance); type: in vitro ADME; conditions: male, Sprague-Dawley, freshly isolated rat hepatocytes, read-out: rClint hep
# Method: Metabolic Stability in Rat Hepatocytes
# Cells source: in house fresh isolated rat hepatocytes from male sprague-Dawley.
# 1 μM of compound incubated in Krebs-Heinsleit buffer with 1×10^6 cells in 37° C. for 0, 15, 30, 60 and 90 min. A total volume of each incubation was 100 μL containing 0.1% DMSO. The reaction was stopped by adding 100 μL acetonitrile.
# After reaction was stopped. The sample was centrifuged at 1900 g for 5 min. Supernatant was transferred to a clean tube for analysis.
# T1 sequence (Q8NER1 whole entry): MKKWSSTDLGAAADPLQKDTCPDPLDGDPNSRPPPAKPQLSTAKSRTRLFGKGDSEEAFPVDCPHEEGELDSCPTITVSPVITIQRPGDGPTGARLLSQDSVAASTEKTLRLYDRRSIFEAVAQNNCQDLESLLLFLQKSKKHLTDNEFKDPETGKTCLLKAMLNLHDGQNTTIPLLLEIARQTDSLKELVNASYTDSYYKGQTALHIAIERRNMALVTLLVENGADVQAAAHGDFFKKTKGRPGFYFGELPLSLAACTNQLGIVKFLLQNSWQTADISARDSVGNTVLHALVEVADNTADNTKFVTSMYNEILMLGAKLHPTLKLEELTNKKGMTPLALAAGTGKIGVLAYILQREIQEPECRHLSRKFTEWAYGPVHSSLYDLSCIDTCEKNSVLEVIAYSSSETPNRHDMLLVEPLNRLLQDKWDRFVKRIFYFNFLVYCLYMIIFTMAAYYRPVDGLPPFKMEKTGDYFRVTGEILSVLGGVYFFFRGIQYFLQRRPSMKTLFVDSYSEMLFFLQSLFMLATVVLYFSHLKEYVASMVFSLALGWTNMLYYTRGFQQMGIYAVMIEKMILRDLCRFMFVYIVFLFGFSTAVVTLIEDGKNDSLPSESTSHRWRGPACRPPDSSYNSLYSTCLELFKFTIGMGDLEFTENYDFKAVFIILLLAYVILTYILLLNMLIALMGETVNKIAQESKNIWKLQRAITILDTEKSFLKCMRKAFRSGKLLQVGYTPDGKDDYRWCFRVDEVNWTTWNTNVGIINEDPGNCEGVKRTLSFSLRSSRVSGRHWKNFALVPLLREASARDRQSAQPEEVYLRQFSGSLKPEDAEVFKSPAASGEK
Compound,IC50 (hVR1; agonist capsaicin),IC50 (hVR1; agonist pH 5.2 buffer),Hepatocyte intrinsic clearance at 1 μM [1]
"O=C(Nc1ccc2sc(CO)nc2c1)c1ccc(C2CCCCC2)cc1 [Example 6, 4-Cyclohexyl-N-[2-(hydroxymethyl)-1,3-benzothiazol-5-yl]benzamide]",23 nM,,
"Cc1nc(C(F)(F)F)ccc1C(=O)Nc1ccc2sc(CO)nc2c1F [Example 41, N-[4-fluoro-2-(hydroxymethyl)-1,3-benzothiazol-5-yl]-2-methyl-6-(trifluoromethyl)nicotinamide]",1950 nM,,
"O=C(Nc1ccc2sc(CO)nc2c1)c1ccc(C(F)(F)F)nc1 [Example 8, N-[2-(hydroxymethyl)-1,3-benzothiazol-5-yl]-6-(trifluoromethyl)nicotinamide]",,417 nM,
"Cc1cc(OC(C)C)ccc1C(=O)Nc1ccc2sc(CO)nc2c1 [Example 24, N-[2-(hydroxymethyl)-1,3-benzothiazol-5-yl]-4-isopropoxy-2-methylbenzamide]",47 nM,,10 µL/min/mg
"Cc1cc(OC(C)C)ccc1C(=O)Nc1ccc2sc(CO)nc2c1F [Example 40, N-[4-fluoro-2-(hydroxymethyl)-1,3-benzothiazol-5-yl]-4-isopropoxy-2-methylbenzamide]",67 nM,,11.8 µL/min/mg
"O=C(Nc1ccc2sc(CO)nc2c1F)c1ccc(OCC(F)(F)F)nc1 [Example 43, N-[4-fluoro-2-(hydroxymethyl)-1,3-benzothiazol-5-yl]-6-(2,2,2-trifluoroethoxy)nicotinamide]",489 nM,,
"CN(C)c1ccc(C(=O)Nc2ccc3sc(CO)nc3c2)c2ccccc12 [Example 10, 4-(dimethylamino)-N-[2-(hydroxymethyl)-1,3-benzothiazol-5-yl]-1-naphthamide]",54 nM,,14 µL/min/mg
"O=C(Nc1ccc2sc(CO)nc2c1)c1ccc(OC(F)(F)C(F)F)cc1 [Example 5, N-[2-(hydroxymethyl)-1,3-benzothiazol-5-yl]-4-(1,1,2,2-tetrafluoroethoxy)benzamide]",8 nM,,
"O=C(Nc1ccc2sc(CO)nc2c1)c1ccc(N2CCCCC2)nc1 [Example 9, N-[2-(hydroxymethyl)-1,3-benzothiazol-5-yl]-6-piperidin-1-ylnicotinamide]",86 nM,,
"O=C(Nc1ccc2sc(CO)nc2c1)c1ccc(C(F)(F)F)c(F)c1 [Example 7, 3-Fluoro-N-[2-(hydroxymethyl)-1,3-benzothiazol-5-yl]-4-(trifluoromethyl)benzamide]",4 nM,,
"Cc1cc(OC(C)(C)C)ccc1C(=O)Nc1ccc2sc(CO)nc2c1 [Example 23, 4-tert-butoxy-N-[2-(hydroxymethyl)-1,3-benzothiazol-5-yl]-2-methylbenzamide]",59 nM,,22 µL/min/mg
"O=C(Nc1ccc2sc(CO)nc2c1F)c1ccc(C(F)(F)F)nc1 [Example 42, N-[4-fluoro-2-(hydroxymethyl)-1,3-benzothiazol-5-yl]-6-(trifluoromethyl)nicotinamide]",904 nM,,
